A word on the MIC: it is the lowest concentration found to suppress growth. The term HC50 denotes the concentration giving 50% haemolysis.

Structures are written as SMILES. In brackets after ≈: the same amount, converted by molar mass.

Series [1] concerns Pseudomonas aeruginosa. Briefly: Antibacterial activity against Pseudomonas aeruginosa assessed as bacterial growth inhibition measured after 24 hrs by two fold serial dilution technique. Type of series: functional.
The subject of series [2] is Escherichia coli. Briefly: Antibacterial activity against Escherichia coli assessed as bacterial growth inhibition measured after 24 hrs by two fold serial dilution technique. Type of series: functional.
The nature of series [3]: Hemolytic activity in human RBC assessed as hemolysis incubated for 1 hr. It counts as toxicity, cell-based, Erythrocyte. Conditions: red blood cells.
Series [4] concerns Staphylococcus aureus. In words: Antibacterial activity against Staphylococcus aureus ATCC 29213 assessed as bacterial growth inhibition measured after 24 hrs by two fold serial dilution technique. It counts as functional.
The subject of another series is Klebsiella pneumoniae. In words: Antibacterial activity against Klebsiella pneumoniae assessed as bacterial growth inhibition measured after 24 hrs by two fold serial dilution technique. Type of series: functional.
A further series concerns Enterococcus faecium. Briefly: Antibacterial activity against Enterococcus faecium assessed as bacterial growth inhibition measured after 24 hrs by two fold serial dilution technique. Type of series: functional.
Series [5] deals with Escherichia coli. Briefly: Antibacterial activity against Escherichia coli ATCC 25922 assessed as bacterial growth inhibition measured after 24 hrs by two fold serial dilution technique. It counts as functional.
Series [6] concerns Staphylococcus aureus. Briefly: Antibacterial activity against Staphylococcus aureus ATCC 25923 assessed as bacterial growth inhibition measured after 24 hrs by two fold serial dilution technique. Type of series: functional.
Series [7] concerns Pseudomonas aeruginosa. In words: Antibacterial activity against Pseudomonas aeruginosa ATCC 27853 assessed as bacterial growth inhibition measured after 24 hrs by two fold serial dilution technique. It counts as functional.
The test system of series [8] is Staphylococcus aureus. In words: Antibacterial activity against Staphylococcus aureus assessed as bacterial growth inhibition measured after 24 hrs by two fold serial dilution technique. Type of series: functional.
Series [9] concerns Staphylococcus aureus. Briefly: Antibacterial activity against methicillin-resistant Staphylococcus aureus assessed as bacterial growth inhibition measured after 24 hrs by two fold serial dilution technique. It counts as functional.
For the next series, the system named is Acinetobacter baumannii. Briefly: Antibacterial activity against Acinetobacter baumannii assessed as bacterial growth inhibition measured after 24 hrs by two fold serial dilution technique. It counts as functional.

As for `CO/N=C(\C(=O)N1CCN(c2ccc3c4c(cccc24)C(=O)N(CCO)C3=O)CC1)c1csc(N)n1`, the MIC with Pseudomonas aeruginosa [1] amounted to 16 µg/mL (≈ 31.5 µM); with Escherichia coli [2] it was 16 µg/mL (≈ 31.5 µM); in the series on Staphylococcus aureus [4], 32 µg/mL (≈ 62.9 µM); in the series on Klebsiella pneumoniae, 64 µg/mL (≈ 126 µM); in the series on Enterococcus faecium it was 16 µg/mL (≈ 31.5 µM); in the series with Escherichia coli [5], 64 µg/mL (≈ 126 µM). The minimal inhibitory concentration (MIC) with Staphylococcus aureus [6] came to 16 µg/mL (≈ 31.5 µM); in the series on Pseudomonas aeruginosa [7], 64 µg/mL (≈ 126 µM); with Staphylococcus aureus [8], 64 µg/mL (≈ 126 µM); with Staphylococcus aureus [9], 2 µg/mL (≈ 3.93 µM); with Acinetobacter baumannii, 16 µg/mL (≈ 31.5 µM). Moreover, in [3], the HC50 at 1 h came to 214 µg/mL.
Take `CO/N=C(\C(=O)N1CCN(c2ccc3c4c(cccc24)C(=O)N(Oc2ccccc2)C3=O)CC1)c1csc(N)n1`: the MIC was determined as 32 µg/mL (≈ 57.5 µM) in the series with Pseudomonas aeruginosa [1]; 2 µg/mL (≈ 3.59 µM) in the series on Escherichia coli [2]; 64 µg/mL (≈ 115 µM) with Staphylococcus aureus [4]; 32 µg/mL (≈ 57.5 µM) in the series on Klebsiella pneumoniae; 64 µg/mL (≈ 115 µM) in the series on Enterococcus faecium; 128 µg/mL (≈ 230 µM) with Escherichia coli [5]. Moreover, the minimal inhibitory concentration (MIC) in the series on Staphylococcus aureus [6] is 16 µg/mL (≈ 28.7 µM); in the series with Pseudomonas aeruginosa [7], 32 µg/mL (≈ 57.5 µM); in the series on Staphylococcus aureus [8], 64 µg/mL (≈ 115 µM); in the series on Staphylococcus aureus [9], 1 µg/mL (≈ 1.8 µM); in the series with Acinetobacter baumannii, 32 µg/mL (≈ 57.5 µM). In series [3], the HC50 at 1 h was determined as 223 µg/mL.
Regarding `CCCCCCN1C(=O)c2cccc3c(N4CCN(C(=O)/C(=N\OC)c5csc(N)n5)CC4)ccc(c23)C1=O`, the minimum inhibitory concentration (MIC) was determined as 64 µg/mL (≈ 117 µM) in the series with Pseudomonas aeruginosa [1]; 32 µg/mL (≈ 58.3 µM) in the series with Escherichia coli [2]; 64 µg/mL (≈ 117 µM) in the series with Staphylococcus aureus [4]; 64 µg/mL (≈ 117 µM) with Klebsiella pneumoniae; 64 µg/mL (≈ 117 µM) in the series on Enterococcus faecium; 64 µg/mL (≈ 117 µM) in the series with Escherichia coli [5]. The minimum inhibitory concentration (MIC) in the series with Staphylococcus aureus [6] worked out at 128 µg/mL (≈ 233 µM); in the series with Pseudomonas aeruginosa [7], 64 µg/mL (≈ 117 µM); in the series on Staphylococcus aureus [8], 16 µg/mL (≈ 29.2 µM); in the series with Staphylococcus aureus [9], 32 µg/mL (≈ 58.3 µM); in the series with Acinetobacter baumannii, 8 µg/mL (≈ 14.6 µM). Also, the concentration for 50% haemolysis (HC50) at 1 h in series [3] came out at 306 µg/mL.
As to `CO/N=C(\C(=O)N1CCN(c2ccc3c4c(cccc24)C(=O)N(CC#N)C3=O)CC1)c1csc(N)n1`, the MIC with Pseudomonas aeruginosa [1] is 256 µg/mL (≈ 508 µM); in the series with Escherichia coli [2], 128 µg/mL (≈ 254 µM); in the series with Staphylococcus aureus [4] it was 32 µg/mL (≈ 63.5 µM); in the series on Klebsiella pneumoniae, 16 µg/mL (≈ 31.8 µM); in the series on Enterococcus faecium it was 8 µg/mL (≈ 15.9 µM); in the series on Escherichia coli [5], 64 µg/mL (≈ 127 µM). The MIC was 128 µg/mL (≈ 254 µM) in the series with Staphylococcus aureus [6]; 64 µg/mL (≈ 127 µM) with Pseudomonas aeruginosa [7]; 64 µg/mL (≈ 127 µM) in the series with Staphylococcus aureus [8]; 16 µg/mL (≈ 31.8 µM) with Staphylococcus aureus [9]; 8 µg/mL (≈ 15.9 µM) in the series on Acinetobacter baumannii. Also, the HC50 at 1 h in series [3] came to 299 µg/mL.
Consider `CO/N=C(\C(=O)N1CCN(c2ccc3c4c(cccc24)C(=O)N(O)C3=O)CC1)c1csc(N)n1`, for which the MIC with Pseudomonas aeruginosa [1] is 64 µg/mL (≈ 133 µM); in the series on Escherichia coli [2], 32 µg/mL (≈ 66.6 µM); with Staphylococcus aureus [4] it was 32 µg/mL (≈ 66.6 µM); in the series with Klebsiella pneumoniae, 16 µg/mL (≈ 33.3 µM); in the series with Enterococcus faecium, 8 µg/mL (≈ 16.6 µM); in the series with Escherichia coli [5], 64 µg/mL (≈ 133 µM). The minimum inhibitory concentration (MIC) with Staphylococcus aureus [6] was determined as 32 µg/mL (≈ 66.6 µM); with Pseudomonas aeruginosa [7], 64 µg/mL (≈ 133 µM); in the series with Staphylococcus aureus [8], 64 µg/mL (≈ 133 µM); in the series with Staphylococcus aureus [9], 16 µg/mL (≈ 33.3 µM); in the series with Acinetobacter baumannii, 2 µg/mL (≈ 4.16 µM). For the same molecule, the HC50 at 1 h in [3] was 277 µg/mL.
With `CO/N=C(\C(=O)N1CCN(c2ccc3c4c(cccc24)C(=O)N(C2CC2)C3=O)CC1)c1csc(N)n1`, the minimum inhibitory concentration (MIC) with Pseudomonas aeruginosa [1] was 64 µg/mL (≈ 127 µM); with Escherichia coli [2], 32 µg/mL (≈ 63.4 µM); with Staphylococcus aureus [4], 64 µg/mL (≈ 127 µM); in the series with Klebsiella pneumoniae, 32 µg/mL (≈ 63.4 µM); in the series on Enterococcus faecium, 32 µg/mL (≈ 63.4 µM); in the series with Escherichia coli [5] it was 64 µg/mL (≈ 127 µM). Also, the minimal inhibitory concentration (MIC) came out at 16 µg/mL (≈ 31.7 µM) in the series with Staphylococcus aureus [6]; 128 µg/mL (≈ 254 µM) in the series on Pseudomonas aeruginosa [7]; 32 µg/mL (≈ 63.4 µM) with Staphylococcus aureus [8]; 32 µg/mL (≈ 63.4 µM) with Staphylococcus aureus [9]; 16 µg/mL (≈ 31.7 µM) in the series with Acinetobacter baumannii. Also, in [3], the HC50 at 1 h stood at 266 µg/mL.
For `CO/N=C(\C(=O)N1CCN(c2ccc3c4c(cccc24)C(=O)N(n2cnnc2)C3=O)CC1)c1csc(N)n1`, the MIC in the series with Pseudomonas aeruginosa [1] turned out to be 16 µg/mL (≈ 30.1 µM); in the series with Escherichia coli [2], 32 µg/mL (≈ 60.2 µM); with Staphylococcus aureus [4], 1 µg/mL (≈ 1.88 µM); in the series with Klebsiella pneumoniae, 64 µg/mL (≈ 120 µM); in the series with Enterococcus faecium it was 16 µg/mL (≈ 30.1 µM); with Escherichia coli [5] it was 64 µg/mL (≈ 120 µM). In addition, the MIC in the series on Staphylococcus aureus [6] turned out to be 128 µg/mL (≈ 241 µM); in the series with Pseudomonas aeruginosa [7] it was 64 µg/mL (≈ 120 µM); in the series on Staphylococcus aureus [8], 128 µg/mL (≈ 241 µM); in the series with Staphylococcus aureus [9], 2 µg/mL (≈ 3.76 µM); with Acinetobacter baumannii, 16 µg/mL (≈ 30.1 µM). Also, in [3], the HC50 at 1 h is 255 µg/mL.
As for `CO/N=C(\C(=O)N1CCN(c2ccc3c4c(cccc24)C(=O)N(c2nc4ccccc4[nH]2)C3=O)CC1)c1csc(N)n1`, the MIC stood at 16 µg/mL (≈ 27.6 µM) in the series with Pseudomonas aeruginosa [1]; 256 µg/mL (≈ 441 µM) in the series with Escherichia coli [2]; 128 µg/mL (≈ 220 µM) with Staphylococcus aureus [4]; 8 µg/mL (≈ 13.8 µM) with Klebsiella pneumoniae; 128 µg/mL (≈ 220 µM) in the series on Enterococcus faecium; 16 µg/mL (≈ 27.6 µM) in the series with Escherichia coli [5]. In addition, the MIC in the series with Staphylococcus aureus [6] was 128 µg/mL (≈ 220 µM); in the series on Pseudomonas aeruginosa [7], 32 µg/mL (≈ 55.1 µM); in the series with Staphylococcus aureus [8], 128 µg/mL (≈ 220 µM); in the series with Staphylococcus aureus [9], 4 µg/mL (≈ 6.89 µM); in the series with Acinetobacter baumannii, 128 µg/mL (≈ 220 µM). The concentration for 50% haemolysis (HC50) at 1 h in series [3] was found to be 367 µg/mL.
Turning to `CO/N=C(\C(=O)N1CCN(c2ccc3c4c(cccc24)C(=O)N(CCC(=O)O)C3=O)CC1)c1csc(N)n1`, the minimal inhibitory concentration (MIC) was found to be 16 µg/mL (≈ 29.8 µM) with Pseudomonas aeruginosa [1]; 8 µg/mL (≈ 14.9 µM) in the series on Escherichia coli [2]; 64 µg/mL (≈ 119 µM) in the series on Staphylococcus aureus [4]; 128 µg/mL (≈ 239 µM) with Klebsiella pneumoniae; 16 µg/mL (≈ 29.8 µM) in the series with Enterococcus faecium; 64 µg/mL (≈ 119 µM) with Escherichia coli [5]. Moreover, the MIC turned out to be 16 µg/mL (≈ 29.8 µM) in the series with Staphylococcus aureus [6]; 32 µg/mL (≈ 59.6 µM) with Pseudomonas aeruginosa [7]; 64 µg/mL (≈ 119 µM) with Staphylococcus aureus [8]; 8 µg/mL (≈ 14.9 µM) in the series with Staphylococcus aureus [9]; 16 µg/mL (≈ 29.8 µM) in the series on Acinetobacter baumannii. Also, the HC50 at 1 h in series [3] worked out at 210 µg/mL.
